The results in this text go back to patent US11225642B2, “Method for producing renal progenitor cells” (KYOTO UNIVERSITY, priority 2013, dated 2022).

For assay [1], the system named is OSR1-GFP & SIX2-tdTomato reporter human iPS cell line (4A6C3-10). The assay can be described thus: SIX2-positive cell induction method 4, OSR1+SIX2+ cell rate by flow cytometer. It is filed as cell-based. As for the experimental part:
4A6C3-10 was cultured at 37° C. in a 2% to 5% CO2 atmosphere to become 70% to 80% confluent on 10-cm dishes containing a primate ES medium (ReproCELL) supplemented with 500 U/ml penicillin/streptomycin (Invitrogen) and 5 ng/ml recombinant human basic fibroblast growth factor (bFGF, Wako) with the use of ICR-mouse-embryo (fetus 12.5 days old)-derived mouse embryonic fibroblasts (MEF) or SNL feeder cells (McMahon, A. P. and Bradley, A. (1990) Cell 62; 1073-1085) (these cells being previously treated with 15.5 μg/ml mitomycin (Kyowa Hakko Kirin Co., Ltd.) for 2 to 3 hours and seeded at a density of 2×10^5 cells/6-cm dish) as feeder cells. The 10-cm plates containing the cells were rinsed with PBS and treated with a CTK solution (PBS containing 0.25% Trypsin (Invitrogen), 0.1% Collagenase IV (Invitrogen), 20% KnockOut SR (KSR, Invitrogen), and 1 mM CaCl2) at 37° C. for 4 minutes. The CTK solution was removed by rinsing with PBS. Then, the medium was exchanged with DMEM/F12+Glutamax (Invitrogen) containing 0.1 mM MEM NEAA (Invitrogen), 1000 U/ml penicillin/streptomycin, 0.55 mM 2-mercaptoethanol (Invitrogen), and 20% KSR. Subsequently, the cells were scraped using a cell scraper and seeded on 6-cm plates coated with 0.2% gelatin to remove feeder cells. One hour later, the cells were washed with DMEM/F12+Glutamax [stage-1 medium] containing 500 U/ml penicillin/streptomycin and 2% FBS (HyClone), transferred to ultra-low attachment dishes (Corning 3471) having a stage-1 medium containing 100 ng/ml recombinant human/mouse/rat Activin A (R&D Systems) and 1 μM CHIR99021, and cultured at 37° C. in a 5% CO2 atmosphere for 2 days.
In order to differentiate into the intermediate mesoderm, the cell mass (embryoid body (EB)) obtained at stage 1 was transferred to a 24-well plate coated with Synthemax II (Corning), the medium was exchanged with DMEM/F12+Glutamax containing 0.1 mM MEM NEAA, 500 U/ml penicillin/streptomycin, 0.55 mM 2-mercaptoethanol, 10% KSR, 100 ng/ml BMP7 (recombinant human BMP7, R&D Systems), and 1 μM CHIR99021, and the cells were cultured at 37° C. in a 5% CO2 atmosphere for 3 days.
After stage 2, the medium was exchanged with DMEM/F12+Glutamax containing 0.1 mM MEM NEAA, 500 U/ml penicillin/streptomycin, 0.55 mM 2-mercaptoethanol, 10% KSR, 1 μM TTNPB (Sigma T3757), and 5 ng/ml TGFβ1 (Peprotech), followed by culturing at 37° C. in a 5% CO2 atmosphere for 5 days. The medium was exchanged with a medium having the same conditions two days after the start of culture (i.e., day 8 from the start of stage 1 (day 1)).
After stage 3, the medium was exchanged with DMEM/F12+Glutamax containing 0.1 mM MEM NEAA, 500 U/ml penicillin/streptomycin, 0.55 mM 2-mercaptoethanol, 10% KSR, 5 ng/ml TGFβ1, and 0.5 μM DMH1 (Tocris), followed by culturing at 37° C. in a 5% CO2 atmosphere for 17 days (i.e., culturing for 28 days in total from the start of stage 1 (day 1); FIG. 3A). In this case, the medium was exchanged every 3 days with a medium having the same conditions. […] In addition, the OSR1^+SIX2^+ cell rate reached the maximum level on day 25 of culture and then it was confirmed to be maintained until day 28 of culture (FIG. 3D).
Induction of OSR1^+SIX2^+ cells from the 4A6C3-10 iPS cell line was examined using different combinations of TGFβ signaling activators and BMP inhibitors. Specifically, induction of OSR1^+SIX2^+ cells from 4A6C3-10 was examined under conditions 1) to 10) described below. […]
Background: A flow cytometer gives signals particle by particle.

Assay [2] relates to OSR1-GFP & SIX2-tdTomato reporter human iPS cell line. The assay can be described thus: SIX2-positive cell induction method 1, SIX2-tdTomato-positive cell rate by flow cytometer. It is filed as cell-based. The note with it: for SIX2-positive cell rate: induction method 1 stage 3, Dorsomorphin replaced with 0.5 μM LDN193189 and TGFβ1 with 10 ng/ml TGFβ2 or TGFβ3. As for the experimental part: The OSR1-GFP & SIX2-tdTomato reporter human iPS cell line obtained by the method in Example 1 was cultured at 37° C. in a 2-5% CO2 atmosphere to become confluent on 10-cm dishes containing a primate ES/iPS cell medium (ReproCELL) supplemented with 5 ng/ml bFGF (Wako) with the use of SNL cells (McMahon, A. P. and Bradley, A. (1990) Cell 62; 1073-1085) (the cells being treated with 15.5 μg/ml mitomycin (Kyowa Hakko Kirin Co., Ltd.) for 2 to 3 hours and seeded at a density of 3×10^5 cells/10-cm dish) as feeder cells. A CTK solution (2.5% Trypsin (Invitrogen), 1 mg/ml Collagenase IV (Invitrogen), 0.1 M CaCl2, 10 mL KnockOut SR (Invitrogen), and 29.5 mL H2O) was added to dissociate the cells. After removal of the feeder cells, the dissociated cells were suspended in a DMEM/F12 medium containing 1 μM CHIR99021 (Stemgent, 04-0004), 100 ng/ml Activin A (R&D Systems, 338-AC), 1% GlutaMAX (100×) (Invitrogen, 35050-061), 2% FBS (Hyclone), and 0.5% PenStrep (Invitrogen, 10565). Then, the cell suspensions were transferred to a low cell binding plate (LOW CELL BIND 6 WELL DISH (Nunc, 145383)) such that each well contained one-third to one-sixth of the cell suspension obtained from the 10-cm dish, followed by suspension culture at 37° C. in a 5% CO2 atmosphere for 2 days.
The cell mass obtained at stage 1 was transferred to a 24-well or 6-well dish coated with Matrigel (BD Matrigel Matrix Growth Factor Reduced (BD Biosciences, 356230) (the dish being coated with 0.2 mg/ml Matrigel in DMEM and treated at 37° C. for 30 minutes or at 4° C. overnight) or a 24-well or 6-well dish coated with Synthemax (Corning Synthemax II-SC Substrate (Corning, 3535XX1)) (the dish being coated with Synthemax diluted 40-fold with sterile water and treated at room temperature for 2 hours). The medium was exchanged with a DMEM/F12 medium containing 1 μM CHIR99021, 100 ng/ml BMP7 (Recombinant human BMP7 (R&D Systems, 3534-BP)), 0.1% 2-mercaptoethanol (1000×) (Invitrogen, 21985), 1% GlutaMAX (100×), 10% KnockOut SR (Invitrogen), 0.1 mM MEM NEAA (Invitrogen, 11140), and 0.5% PenStrep, followed by adhesion culture at 37° C. in a 5% CO2 atmosphere for 3 to 6 days. In the case of culture for 3 days or more, the medium was exchanged every 3 days with a medium having the same conditions.
The medium was removed from the cells obtained at stage 2. The cells were washed with PBS and then the medium was exchanged with a DMEM/F12 medium containing 5 ng/ml TGFβ1 (Peprotech, 100-21C), 0.5 μM Dorsomorphin (AMPK Inhibitor, Compound C (Merck, 171260)), 0.1% 2-mercaptoethanol (1000×), 1% GlutaMAX (100×), 10% KnockOut SR, 0.1 mM MEM NEAA, and 0.5% PenStrep, followed by suspension culture at 37° C. in a 5% CO2 atmosphere for 15 to 22 days. In this case, the medium was exchanged every 3 days with a medium having the same conditions.
At stage 3 of SIX2-positive cell induction method 1, Dorsomorphin was replaced with 100 ng/ml Noggin (Peprotech), 0.5 μM LDN193189 (Axon MedChem, 1509), or 0.5 μM DMH1 (Tocris, 4126) for differentiation induction in the aforementioned manner.
At stage 3 of SIX2-positive cell induction method 1, TGFβ1 was exchanged with 50 μM IDE1 (Tocris) or 50 μM IDE2 (Tocris) for differentiation induction in the aforementioned manner.
At stage 3 of SIX2-positive cell induction method 1, Dorsomorphin was replaced with 0.5 μM LDN193189, while TGFβ1 with 10 ng/ml TGFβ2 (Peprotech) or 10 ng/ml TGFβ3 (R&D), for differentiation induction in the aforementioned manner. As a result, the SIX2-positive cell rates were 8.6% and 9.3%, respectively (FIGS. 2G and 2H).

Where [3] appears, read: induction method 1 stage 3, TGFβ1 exchanged with 50 μM IDE1 or 50 μM IDE2, with Dorsomorphin.
Setting [4] is: induction method 1 stage 3, Dorsomorphin replaced with 100 ng/ml Noggin, 0.5 μM LDN193189 or 0.5 μM DMH1, with TGFβ1.

Regarding `NC(=O)c1ccc(-c2nc(-c3ccc4c(c3)OCO4)c(-c3ccccn3)[nH]2)cc1` [SB431542], the “differentiation into OSR1+SIX2+ cells” value in assay [1] (stage 4 medium with 10 μM SB431542 together with 5 ng/ml TGFβ1 and 0.5 μM DMH1 (condition 11)) is listed as “inhibited”. Molecule `O=C(O)CCCCCC(=O)NN=C1CCCC1` [IDE2, 7-(2-cyclopentylidenehydrazinyl)-7-oxoheptanoic acid] showed an SIX2-tdTomato-positive cell rate in assay [2] (setting [3]) of 39.4%. Same read-out and setting: the result for `O=C(O)CCCCCC(=O)N/N=C\c1ccccc1C(=O)O` [IDE1, (Z)-2-((2-(6-carboxyhexanoyl)hydrazono)methyl)benzoic acid] reads 8.4%. With `c1ccc2c(-c3cnn4cc(-c5ccc(N6CCNCC6)cc5)cnc34)ccnc2c1` [LDN193189, 4-(6-(4-(piperazin-1-yl)phenyl)pyrazolo[1,5-a]pyrimidin-3-yl)quinoline], the SIX2-tdTomato-positive cell rate in assay [2] (setting [4]) was determined as 20.4%.

For `CC(C)Oc1ccc(-c2cnc3c(-c4ccnc5ccccc45)cnn3c2)cc1` [DMH1, 4-[6-[4-(1-Methylethoxy)phenyl]pyrazolo[1,5-a]pyrimidin-3-yl]-quinoline], the “induction of OSR1+SIX2+ cells” value in assay [1] (Example 8, comparison of combinations of TGFβ signaling activators and BMP inhibitors at stage 4 (FIG. 4)) was “effective”. Also, the “OSR1-positive and SIX2-positive (OSR1+SIX2+) cell rate” value in assay [1] (induction method 4, stage 4 medium with 5 ng/ml TGFβ1 and 0.5 μM DMH1, day 28 of culture) turned out to be 32.8%. Moreover, the SIX2-tdTomato-positive cell rate in assay [2] (setting [4]) was 15.4%.

B1: TGFβ2: TGFβ signaling activator protein (Peprotech) (protein, UniProt P61812 303-414, looked up)
Transforming growth factor …: ALDAAYCFRNVQDNCCLRPLYIDFKRDLGWKWIHEPKGYNANFCAGACPYLWSSDTQHSRVLSLYNTINPEASASPCCVSQDLEPLTILYYIGKTPKIEQLSNMIVKSCKCS
B1: the SIX2-positive cell rate in assay [2] turned out to be 8.6%.

B2: Noggin: BMP inhibitor protein (Peprotech) (protein, UniProt Q13253 28-232, looked up)
Noggin: QHYLHIRPAPSDNLPLVDLIEHPDPIFDPKEKDLNETLLRSLLGGHYDPGFMATSPPEDRPGGGGGAAGGAEDLAELDQLLRQRPSGAMPSEIKGLEFSEGLAQGKKQRLSKKLRRKLQMWLWSQTFCPVLYAWNDLGSRFWPRYVKVGSCFSKRSCSVPEGMVCKPSKSVHLTVLRWRCQRRGGQRCGWIPIQYPIISECKCSC
For the molecule B2, in assay [2] (setting [4]), the SIX2-tdTomato-positive cell rate is on record as 7.5%.

B3: TGFβ3: TGFβ signaling activator protein (R&D, Peprotech) (protein, UniProt P10600 301-412, looked up)
Transforming growth factor …: ALDTNYCFRNLEENCCVRPLYIDFRQDLGWKWVHEPKGYYANFCSGPCPYLRSADTTHSTVLGLYNTLNPEASASPCCVPQDLEPLTILYYVGRTPKVEQLSNMVVKSCKCS
Molecule B3 showed an SIX2-positive cell rate in assay [2] of 9.3%.
